Reference: patent US20240226228A1, “ANTIMICROBIAL PEPTOID HAVING IMPROVED SELECTIVITY AND ANTIMICROBIAL COMPOSITION COMPRISING SAME” (priority 2021, published 2024)
In brackets after ≈: the same amount, converted by molar mass. Like-named read-outs stand apart in the source and are kept apart here. Where a SMILES comes first, the peptide text is derived from it. [ ]: non-standard residue; d: D form. Gly(N(CH2)2(3-indolyl)) = O=C(O)CNCCc1c[nH]c2ccccc12; Nspe = C[C@H](NCC(=O)O)c1ccccc1; Nlys = NCCCCNCC(=O)O

Tests used:
in vitro = settings: human
Experimental: (§1) Human lung cells (MRC-5) were purchased from the Korean Cell Line Bank, and human keratinocytes (HaCaT) were purchased from the AmorePacific R&D Center. All cells were grown in a Dulbecco's modified Eagle's medium containing 10% fetal bovine serum under conditions of 5% CO2 and 37° C. To confirm the effect of a peptoid on cell growth, 3-(4,5-dimethylthiazol-2-yl)-5-(3-carboxymethoxyphenyl)-2-(4-sulfophenyl)-2H-tetrazolium (MTS) cell assay was performed to determine cell viability. An aliquot (100 μL) of a batch including 1.3×10^4 MRC-5 cells/mL or 3×10^4 HaCaT cells/mL was dispensed into each well of a 96-well plate. The cells were grown at 37° C. in a 5% CO2 humid atmosphere and allowed to adhere for 24 hours. When the cells reached approximately 70% confluency, the medium was replaced with serial dilutions of the peptoid stock and incubated for 24 hours. 20 μL of a CellTiter 96 aqueous non-radioactive cell proliferation assay reagent (Promega, USA) including a tetrazolium compound was added to each well.
(§2) The contents in the plate were metabolized by incubating at 37° C. for 4 hours. An MTS-formazan product of viable cells was measured at 490 nm using a microplate reader, and cell viability (%) was calculated by Equation 2 below and compared with untreated cells.
(§3) Cell viability (%)=[A/(Acontrol)]×100 [Equation 2]
(§4) In Equation 2, A is the absorbance of a test well, and Acontrol is the average absorbance of a well containing untreated cells.
(§5) The term “nd” shown in Table 19 below is the abbreviation for not determined, and indicates a value that is too small or too large to be measured.

Human lung cells (MRC-5) = assay: in vitro
Experimental: as §1, §2, §3, §4, §5

[1] = test system: human keratinocytes (HaCaT); assay: in vitro
Experimental: as §1, §2, §3, §4, §5

[2] = test system: Enterobacter SP KCTC 2625; assay: MIC in multidrug-resistant bacteria, modified microdilution method; type: cell-based; settings: Table 14
Experimental: (§6) The MIC of the prepared peptoid in multidrug-resistant bacteria was measured using a modified microdilution method in a Difco Mueller Hinton medium, and a test was performed on a bacterial pathogen panel with resistant and tolerance to general antibiotics.
(§7) Briefly, a medium containing bovine serum albumin and 0.001% acetic acid was used to continuously dilute a peptoid concentrate 10-times stronger than the final concentration. 10 uμL of the 10-time stronger peptoid concentrate and 90 μL of a Muleller Hinton medium were added to each well of a 96-well plate. Bacteria were added to the plate until the final concentration reached 2×10^5 CFU/mL and then incubated at […] overnight. MIC was defined as a concentration at which bacterial growth is not observed.

P. aeruginosa KCTC 1637 = assay: as above; type: cell-based; settings: Table 14
Experimental: as §6, §7

[3] = test system: Enterococcus Faecium KCTC 13225; assay: as above; type: cell-based; settings: Table 14
Experimental: as §6, §7

[4] = test system: Enterococcus faecalis KCTC 3511; assay: as above; type: cell-based; settings: Table 14
Experimental: as §6, §7

E. coli KCTC 2411 = assay: as above; type: cell-based; settings: Table 14
Experimental: as §6, §7

[5] = HPLC to confirm peptoid decomposition after counter ion substitution; type: physicochemical; settings: HPLC at 220 nm; HCl and AcOH
Experimental: FIGS. 76 to 83 are the HPLC results for Peptoids 1, 10, 11, 14, 15, 29, 32 and 37 of the present inventive concept to confirm the decomposition of the peptoids after counter ion substitution using (a) HCl and (b) AcOH.
Referring to FIGS. […], HPLC was performed for Peptoids 1, 10, 11, 14, 15, 29, 32 and 37 of the present inventive concept. Since the chloride (HCl) is a stronger acid than TFA, it can decompose acid-vulnerable peptoid compounds.

E. coli ATCC25922 = test system: E. coli ATCC25922
How it was run: (§8)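 Cation-adjusted MHB2 cultures (18 h, subcultured 4 h) adjusted to 2×10^5–5×10^5 CFU/mL in medium with 0.02% BSA and 0.001% acetic acid.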

S. aureus ATCC 25923 = test system: S. aureus ATCC 25923
How it was run: as §8

[6] = Table 18, TFA salt vs counter ion-substituted (HCl, AcOH) peptoids
[7] = Tables 11-13, 24 hours at 37° C., maximum concentration 25 μM

SMILES	CC50 at 24 h (in vitro; LC50 HaCaT) [µM]	lower toxicity against MRC-5 cells compared to the peptoid having a TFA salt (Human lung cells (MRC-5)) [%]	lower toxicity against HaCaT cells compared to the peptoid having a TFA salt [1] [%]	MIC Enterobacter SP KCTC 2625 [2] [µM]	MIC P. aeruginosa KCTC 1637 (P. aeruginosa KCTC 1637) [µM]	MIC Enterococcus Faecium KCTC 13225 [3] [µM]	MIC Enterococcus faecalis KCTC 3511 [4] [µM]	MIC E. coli KCTC 2411 (E. coli KCTC 2411) [µM]	peptoid decomposition after counter ion substitution (in words) [5]	MIC E. coli ATCC25922 (E. coli ATCC25922; [6]) [µM]	MIC E. coli ATCC25922 (E. coli ATCC25922; [7]) [µM]	MIC S. aureus ATCC 25923 (S. aureus ATCC 25923; [6]) [µM]	MIC S. aureus ATCC 25923 (S. aureus ATCC 25923; [7]) [µM]	CC50 at 24 h (in vitro; LC50 MRC-5) [µM]	MIC S. aureus ATCC 25923 (S. aureus ATCC 25923; ATCC 25923) [µM]
C[C@@H](c1ccccc1)N(CC(=O)N(CCCCN)CC(=O)N(CCc1c[nH]c2ccccc12)CC(=O)N(CCc1c[nH]c2ccccc12)CC(N)=O)C(=O)CN(CCCCN)C(=O)CN(CCCCN)C(=O)CN(C(=O)CN(C(=O)CN(CCCCN)C(=O)CN(C(=O)CN(C(=O)CNCCCCN)[C@@H](C)c1ccccc1)[C@@H](C)c1ccccc1)[C@@H](C)c1ccccc1)[C@@H](C)c1ccccc1 [Peptoid 29, H-NLys-Nspe-Nspe-NLys-Nspe-Nspe-NLys-NLys-Nspe-NLys-NhTrp-NhTrp-NH2] (H-[Nlys][Nspe][Nspe][Nlys][Nspe][Nspe][Nlys][Nlys][Nspe][Nlys][Gly(N(CH2)2(3-indolyl))][Gly(N(CH2)2(3-indolyl))]-NH2)	18.8	20	20	3.1 (≈ 5.78 µg/mL)	50 (≈ 93.2 µg/mL)	1.6 (≈ 2.98 µg/mL)	3.1 (≈ 5.78 µg/mL)	6.3 (≈ 11.7 µg/mL)	almost no peptoid decomposition occurred	6.3	6.3 (≈ 11.7 µg/mL)	12.5	6.3 (≈ 11.7 µg/mL)		
C[C@@H](c1ccccc1)N(CC(N)=O)C(=O)CN(CCCCN)C(=O)CN(CCCCN)C(=O)CN(C(=O)CN(C(=O)CN(CCCCN)C(=O)CN(C(=O)CN(C(=O)CN(CCCCN)C(=O)CN(CCc1c[nH]c2ccccc12)C(=O)CN(CCc1c[nH]c2ccccc12)C(=O)CNCCCCN)[C@@H](C)c1ccccc1)[C@@H](C)c1ccccc1)[C@@H](C)c1ccccc1)[C@@H](C)c1ccccc1 [Peptoid 32, H-NLys-NhTrp-NhTrp-NLys-Nspe-Nspe-NLys-Nspe-Nspe-NLys-NLys-Nspe-NH2]	17.1	20	20	3.1 (≈ 5.78 µg/mL)	25 (≈ 46.6 µg/mL)	3.1 (≈ 5.78 µg/mL)	6.3 (≈ 11.7 µg/mL)	6.3 (≈ 11.7 µg/mL)	almost no peptoid decomposition occurred	6.3	6.3 (≈ 11.7 µg/mL)		3.1 (≈ 5.78 µg/mL)	14.5	3.1 (≈ 5.78 µg/mL)
